For assay [1], the target named is T1, Glycerol-3-phosphate acyltransferase 3 (Homo sapiens) (UniProt Q53EU6).
T1 sequence (whole entry): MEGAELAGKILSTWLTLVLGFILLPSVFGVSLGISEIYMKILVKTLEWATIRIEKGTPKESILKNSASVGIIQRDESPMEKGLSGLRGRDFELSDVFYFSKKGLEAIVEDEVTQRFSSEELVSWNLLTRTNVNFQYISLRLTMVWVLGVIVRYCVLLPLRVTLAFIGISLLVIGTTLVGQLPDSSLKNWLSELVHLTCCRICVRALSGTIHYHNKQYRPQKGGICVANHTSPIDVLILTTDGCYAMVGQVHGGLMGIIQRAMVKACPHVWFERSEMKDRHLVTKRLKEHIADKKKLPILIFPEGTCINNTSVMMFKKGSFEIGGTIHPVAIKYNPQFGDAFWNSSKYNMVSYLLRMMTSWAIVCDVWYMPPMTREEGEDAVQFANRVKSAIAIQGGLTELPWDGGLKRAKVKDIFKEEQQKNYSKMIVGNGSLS
Description: Inhibition of GPAT3 (unknown origin) expressed in Sf9 cell membranes assessed as reduction in glycerol 3-phosphate acyltransferase activity at 1 uM using [3H]-glycerol 3-phosphate and palmitoyl CoA incubated for 60 mins by scintillation counting assay relative to control.

The target of assay [2] is T1, Glycerol-3-phosphate acyltransferase 3 (Homo sapiens). Description: Inhibition of GPAT3 (unknown origin) expressed in Sf9 cell membranes assessed as reduction in glycerol 3-phosphate acyltransferase activity at 0.3 uM using [3H]-glycerol 3-phosphate and palmitoyl CoA incubated for 60 mins by scintillation counting assay relative to control.
Assay [3] shares this target. The experiment in a line: Inhibition of GPAT3 (unknown origin) expressed in Sf9 cell membranes assessed as reduction in glycerol 3-phosphate acyltransferase activity at 0.1 uM using [3H]-glycerol 3-phosphate and palmitoyl CoA incubated for 60 mins by scintillation counting assay relative to control.
Assay [4] has the same target. The experiment in a line: Inhibition of GPAT3 (unknown origin) expressed in Sf9 cell membranes assessed as reduction in glycerol 3-phosphate acyltransferase activity at 0.03 uM using [3H]-glycerol 3-phosphate and palmitoyl CoA incubated for 60 mins by scintillation counting assay relative to control.
Assay [5] addresses T2, Glycerol-3-phosphate acyltransferase 4 (Homo sapiens) (UniProt Q86UL3).
T2 sequence (whole entry): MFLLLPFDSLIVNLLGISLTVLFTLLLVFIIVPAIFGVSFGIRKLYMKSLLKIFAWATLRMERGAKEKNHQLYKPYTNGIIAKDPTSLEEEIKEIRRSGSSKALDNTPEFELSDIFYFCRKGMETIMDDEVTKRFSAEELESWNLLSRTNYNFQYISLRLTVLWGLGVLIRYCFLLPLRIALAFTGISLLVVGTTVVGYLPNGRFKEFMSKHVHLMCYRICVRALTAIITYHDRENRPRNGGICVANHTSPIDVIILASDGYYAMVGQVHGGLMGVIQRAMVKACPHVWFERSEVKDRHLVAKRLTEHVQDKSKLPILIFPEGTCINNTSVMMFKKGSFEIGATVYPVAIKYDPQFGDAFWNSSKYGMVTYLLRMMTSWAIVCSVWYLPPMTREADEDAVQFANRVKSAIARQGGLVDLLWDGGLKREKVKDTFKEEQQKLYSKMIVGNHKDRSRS
Description: Inhibition of GPAT4 (unknown origin) expressed in Sf9 cell membranes assessed as reduction in glycerol 3-phosphate acyltransferase activity at 10 uM using [3H]-glycerol 3-phosphate and palmitoyl CoA incubated for 60 mins by scintillation counting assay relative to control.

Assay [6] addresses T2, Glycerol-3-phosphate acyltransferase 4 (Homo sapiens). Description: Inhibition of GPAT4 (unknown origin) expressed in Sf9 cell membranes assessed as reduction in glycerol 3-phosphate acyltransferase activity at 3 uM using [3H]-glycerol 3-phosphate and palmitoyl CoA incubated for 60 mins by scintillation counting assay relative to control.
The target is the same in assay [7]. Description: Inhibition of GPAT4 (unknown origin) expressed in Sf9 cell membranes assessed as reduction in glycerol 3-phosphate acyltransferase activity at 1 uM using [3H]-glycerol 3-phosphate and palmitoyl CoA incubated for 60 mins by scintillation counting assay relative to control.
Assay [8] shares this target. The experiment in a line: Inhibition of GPAT4 (unknown origin) expressed in Sf9 cell membranes assessed as reduction in glycerol 3-phosphate acyltransferase activity at 0.3 uM using [3H]-glycerol 3-phosphate and palmitoyl CoA incubated for 60 mins by scintillation counting assay relative to control.
Assay [9] shares this target. Description: Inhibition of GPAT4 (unknown origin) expressed in Sf9 cell membranes assessed as reduction in glycerol 3-phosphate acyltransferase activity at 0.1 uM using [3H]-glycerol 3-phosphate and palmitoyl CoA incubated for 60 mins by scintillation counting assay relative to control.
For assay [10] the target is unchanged. Description: Inhibition of GPAT4 (unknown origin) expressed in Sf9 cell membranes assessed as reduction in glycerol 3-phosphate acyltransferase activity at 0.03 uM using [3H]-glycerol 3-phosphate and palmitoyl CoA incubated for 60 mins by scintillation counting assay relative to control.
Assay [11] deals with T3, Mesoderm-specific transcript homolog protein (Homo sapiens) (UniProt Q5EB52).
T3 sequence (whole entry): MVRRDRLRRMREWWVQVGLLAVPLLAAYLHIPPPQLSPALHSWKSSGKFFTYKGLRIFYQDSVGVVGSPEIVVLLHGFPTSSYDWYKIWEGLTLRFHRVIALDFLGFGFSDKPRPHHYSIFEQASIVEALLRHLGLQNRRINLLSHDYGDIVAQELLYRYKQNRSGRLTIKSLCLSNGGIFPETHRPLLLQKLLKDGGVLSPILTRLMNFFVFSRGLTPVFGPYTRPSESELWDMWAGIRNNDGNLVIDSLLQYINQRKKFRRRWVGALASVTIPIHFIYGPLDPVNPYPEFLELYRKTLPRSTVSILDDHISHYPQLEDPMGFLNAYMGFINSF
Description: Inhibition of human recombinant MEST T580B (11 to 335 amino acids) expressed in Sf9 cell membranes assessed as reduction in glycerol 3-phosphate acyltransferase activity at 10 uM using [3H]-glycerol 3-phosphate and palmitoyl CoA incubated for 60 mins by scintillation counting assay relative to control.

The target in assay [12] is T3, Mesoderm-specific transcript homolog protein (Homo sapiens). The experiment in a line: Inhibition of human recombinant MEST T580B (11 to 335 amino acids) expressed in Sf9 cell membranes assessed as reduction in glycerol 3-phosphate acyltransferase activity at 3 uM using [3H]-glycerol 3-phosphate and palmitoyl CoA incubated for 60 mins by scintillation counting assay relative to control.

For assay [13] the target is unchanged. The experiment in a line: Inhibition of human recombinant MEST T580B (11 to 335 amino acids) expressed in Sf9 cell membranes assessed as reduction in glycerol 3-phosphate acyltransferase activity at 1 uM using [3H]-glycerol 3-phosphate and palmitoyl CoA incubated for 60 mins by scintillation counting assay relative to control.
Assay [14] shares this target. The experiment in a line: Inhibition of human recombinant MEST T580B (11 to 335 amino acids) expressed in Sf9 cell membranes assessed as reduction in glycerol 3-phosphate acyltransferase activity at 0.3 uM using [3H]-glycerol 3-phosphate and palmitoyl CoA incubated for 60 mins by scintillation counting assay relative to control.
Assay [15] shares this target. Description: Inhibition of human recombinant MEST T580B (11 to 335 amino acids) expressed in Sf9 cell membranes assessed as reduction in glycerol 3-phosphate acyltransferase activity at 0.1 uM using [3H]-glycerol 3-phosphate and palmitoyl CoA incubated for 60 mins by scintillation counting assay relative to control.
For assay [16] the target is unchanged. Description: Inhibition of human recombinant MEST T580B (11 to 335 amino acids) expressed in Sf9 cell membranes assessed as reduction in glycerol 3-phosphate acyltransferase activity at 0.03 uM using [3H]-glycerol 3-phosphate and palmitoyl CoA incubated for 60 mins by scintillation counting assay relative to control.

Consider one compound from ChEMBL document CHEMBL4482303, “Test system for measuring mest activity as well as methods and uses involving the same” (2012).

Regarding `O=C(CO)COP(=O)(O)O`, the inhibition – broadly, the drop in the measured response relative to a control, in per cent – in [1] was 26%; in assay [2], 12%; in [3], -4%; in assay [4] it was -9%; in assay [5], 54%; in assay [6], 29%. Besides, the inhibition in [7] is 9%; in assay [8] it was 15%; in [9] it was -2%; in [10], 6%; in [11], 76%; in assay [12], 45%. The inhibition was 18% in assay [13], 8% in assay [14], 10% in assay [15] and -6% in assay [16].
